In patent US20080182274A1, “MONITOR PROTEINS USABLE FOR ANALYZING EXPRESSION OF MEMBRANE PROTEINS” (National Institute of Advanced Industrial Science and …, priority 2007, published 2008):

System: monitor protein expressed on the cell membrane
Assay: Recovery of cell-membrane luminescence after Sulfo-NHS deactivation (intracellular transport of monitor protein)
Assay type: cell-based, Chinese hamster
Details: CHO-K1 cells expressing pCMV-DL-D3-CD8, 1 mM BFA, up to 6 hours after deactivation, FIG. 6
Description: The vector pCMV-DL-D3-CD8 prepared in Example 1 was introduced into an animal cell. Briefly, CHO-K1 cells were seeded on 6-well plates at 1=10^6 cells/well and cultured in D-MEM/Ham's F-12 medium (Wako Purechamical Industries) containing 10% FCS. After overnight culture at 37° C., 4 μg of pCMV-DL-D3-CD8 was added to each well and mixed with 250 μl of Opti-MEM serum-free medium (Gibco RRL) and reacted at room temperature for 5 min. Then, 10 μl of lipofectamine 2000 reacted in 250 μl of Opti-MEM serum-free medium at room temperature for 5 min was mixed with the cells to perform transfection in Opti-MEM serum-free medium. Then, the medium was exchanged for D-MEM/Ham's F-12 medium containing 10% FCS. […] Then, cells were counted, followed by preparation of a cell suspension with a cell density of 2×10^7 cells/ml.
By adding 0.5 mM Sulfo-NHS (Pierce) to the cell suspension, the monitor protein expressed on the cell membrane was inactivated. […] Cells were counted and arranged to give a density of 4×10^5 cells per 100 μl. […] To one aliquot, 2 μl of dinoflagellate-derived luciferin was added and the luminescence activity of the monitor protein expressed on the cell membrane was measured. Other aliquots were subjected to measurement of the amount of ATP-derived luminescence in order to examine whether the cell count is constant in individual samples taken at the above-indicated time points.

C[C@H]1CCC/C=C/[C@@H]2C[C@H](O)C[C@H]2[C@H](O)/C=C/C(=O)O1 [BFA, Brefeldin A]
luminescence derived from the membrane protein expressed on the cell membrane after deactivation treatment: luminescence was not recognized
